Assay results as given in patent publication US5599902A, “Cancer inhibitory peptides” (Arizona Board of Regents acting on behalf of Arizona State …, priority 1994, dated 1997).

Legend:
A4X8 = experiment: Human cancer cell line growth inhibition, Renal A4X8; type: cell-based; details: Renal A4X8, 48 hours
Protocol: (§1) Cancer Inst. […] Cancer Inst. Reports, Vol 81, No. 14, Page 1088, Jul.
(§2) The only difference is historical usage.
(§3) Percent Growths are calculated for each dose.
(§4) This is the "baseline count" or "Tzero reading".

SF-2X5 = experiment: Human cancer cell line growth inhibition, CNS SF-2X5; type: cell-based; details: CNS SF-2X5, 48 hours
Protocol: as §1, §2, §3, §4

OVCAR-3 = experiment: Human cancer cell line growth inhibition, Ovarian OVCAR-3; type: cell-based; details: Ovarian OVCAR-3, 48 hours
Protocol: as §1, §2, §3, §4

SK-MEL-5 = experiment: Human cancer cell line growth inhibition, Melanoma SK-MEL-5; type: cell-based; details: Melanoma SK-MEL-5, 48 hours
Protocol: as §1, §2, §3, §4

KM20L2 = experiment: Human cancer cell line growth inhibition, Colon KM20L2; type: cell-based; details: Colon KM20L2, 48 hours
Protocol: as §1, §2, §3, §4

NCI-H460 = experiment: Human cancer cell line growth inhibition, Lung-NSC NCI-H460; type: cell-based; details: Lung-NSC NCI-H460, 48 hours
Protocol: as §1, §2, §3, §4

[1] = system: PS-388 Leukemia cell line; experiment: PS-388 mouse leukemia cell line growth inhibition; type: cell-based; details: Mouse Leukemia PS-388, 48 hours
Protocol: as §2, §3, §4

[2] = system: L1210 murine leukemia cells; experiment: Activity against L1210 murine leukemia cells (IC50); type: cell-based
Text: A molecule (22c) was designed based on the conformational similarities with (6R)-isodolastatin 10 (See FIGS. 1a and 1b). The molecule was then synthesized by the procedure outlined in this application.

[3] = system: P388 Lymphocytic Leukemia; experiment: Murine in vivo system: P388 Lymphocytic Leukemia, T/C
Text: (§5) The synthesis of potentially useful peptides presents one of the most essential and promising approaches to new types of anticancer and immunosuppressant drugs. The Dolastatins, an unprecedented series of linear and cyclic antineoplastic and/or cytostatic peptides isolated from Indian Ocean sea hare Dolabella auricularia represent excellent leads for synthetic modification. The very productive sea hare Dolabella auricularia has produced a number of structurally distinct peptides with excellent antineoplastic activity. Presently dolastatin 10, a linear pentapeptide represents the most important member and is a potentially useful antineoplastic agent. […] Recently the total synthesis and absolute configuration of this structurally unique and biologically active peptide was reported.
(§6) Experimental Anticancer Activity of Dolastatin 10 in Murine in vivo Systems, T/C (μg/kg)

[4] = system: L1210 Lymphocytic Leukemia; experiment: Murine in vivo system: L1210 Lymphocytic Leukemia, T/C
Text: as §5, §6

B16 Melanoma = experiment: Murine in vivo system: B16 Melanoma, T/C
Text: as §5, §6

[5] = system: LOX Human Melanoma Xenograft; experiment: LOX Human Melanoma Xenograft to Nude Mouse, T/C; type: in vivo
Text: as §6

Human Mammary Xenograft = Human Mammary Xenograft Nude Mouse, T/C; type: in vivo
Text: as §5, §6

M5076 Ovary Sarcoma = experiment: Murine in vivo system: M5076 Ovary Sarcoma, T/C
Text: as §5, §6

[6] = system: OVCAR-3 Human Ovary Xenograft; experiment: OVCAR-3 Human Ovary Xenograft Nude Mouse, T/C; type: in vivo; details: OVCAR-3 xenograft, dose 40 μg/kg
Text: as §5, §6

[7] = system: MX-1 Human Mammary Xenograft; experiment: MX-1 Human Mammary Xenograft (Tumor Regression), T/C; type: in vivo, Murine
Text: as §5, §6

[8] = LOX in separate experiments, dose 9.0 μg/kg
[9] = LOX in separate experiments, dose 26 μg/kg
[10] = LOX in separate experiments, dose 43 μg/kg

Molecule: Dov-Val-Dil-Dap methyl ester [compound 21]
- GI-50 (A4X8): 0.02 µg/mL
- LC-50 (A4X8): > 1 µg/mL
- TGI (A4X8): > 1 µg/mL
- GI-50 (SF-2X5): 0.0038 µg/mL
- LC-50 (SF-2X5): > 1 µg/mL
- TGI (SF-2X5): > 0.035 µg/mL
- GI-50 (OVCAR-3): 0.0035 µg/mL
- LC-50 (OVCAR-3): > 1 µg/mL
- TGI (OVCAR-3): 0.026 µg/mL
- GI-50 (SK-MEL-5): 0.0087 µg/mL
- LC-50 (SK-MEL-5): > 1 µg/mL
- TGI (SK-MEL-5): > 1 µg/mL
- GI-50 (KM20L2): 0.021 µg/mL
- LC-50 (KM20L2): > 1 µg/mL
- TGI (KM20L2): 0.23 µg/mL
- GI-50 (NCI-H460): 0.0022 µg/mL
- LC-50 (NCI-H460): > 1 µg/mL
- TGI (NCI-H460): 0.021 µg/mL
- ED-50 [1]: 0.0297 µg/mL

Molecule: Z-Val-Dil-Dap-Phenethylamine [compound 18]
- GI-50 (A4X8): 0.16 µg/mL
- LC-50 (A4X8): > 1 µg/mL
- TGI (A4X8): 0.52 µg/mL
- GI-50 (SF-2X5): 0.14 µg/mL
- LC-50 (SF-2X5): > 1 µg/mL
- TGI (SF-2X5): 0.43 µg/mL
- GI-50 (OVCAR-3): 0.051 µg/mL
- LC-50 (OVCAR-3): 0.99 µg/mL
- TGI (OVCAR-3): 0.24 µg/mL
- GI-50 (SK-MEL-5): 0.29 µg/mL
- LC-50 (SK-MEL-5): > 1 µg/mL
- TGI (SK-MEL-5): > 1 µg/mL
- GI-50 (KM20L2): 0.24 µg/mL
- LC-50 (KM20L2): > 1 µg/mL
- TGI (KM20L2): 0.67 µg/mL
- GI-50 (NCI-H460): 0.21 µg/mL
- LC-50 (NCI-H460): > 1 µg/mL
- TGI (NCI-H460): 0.66 µg/mL
- ED-50 [1]: > 1 µg/mL

Molecule: CC[C@H](C)[C@@H]([C@@H](CC(=O)N1CCC[C@H]1CCC(=O)N[C@@H](CCSC)C(=O)OC)OC)N(C)C(=O)[C@@H](NC(=O)[C@H](C(C)C)N(C)C)C(C)C [22c, Dov-val-dil-desmethoxy-desmethyl-dolaproine-methionine methyl ester]
- IC50 [2]: 4 µM

Molecule: CC[C@H](C)[C@@H]([C@@H](CC(=O)N1CCC[C@H]1[C@H](OC)[C@@H](C)C(=O)N[C@@H](Cc1ccccc1)c1nccs1)OC)N(C)C(=O)[C@@H](NC(=O)[C@H](C(C)C)N(C)C)C(C)C [Dolastatin 10]
- T/C ([3]; P388, dose 1.63 μg/kg): 137
- T/C ([3]; P388, dose 3.25 μg/kg): 146
- cures ([3]; P388, dose 3.25 μg/kg): 17%
- T/C ([3]; P388, dose 6.5 μg/kg): 155
- cures ([3]; P388, dose 6.5 μg/kg): 17%
- T/C ([3]; P388, dose 13.0 μg/kg): toxic
- T/C ([4]; L1210, dose 1.63 μg/kg): 120
- T/C ([4]; L1210, dose 3.25 μg/kg): 139
- T/C ([4]; L1210, dose 6.5 μg/kg): 135
- T/C ([4]; L1210, dose 13 μg/kg): 152
- T/C (B16 Melanoma; B16, dose 1.44 μg/kg): 142
- T/C (B16 Melanoma; B16, dose 3.4 μg/kg): 171
- T/C (B16 Melanoma; B16, dose 4.0 μg/kg): 205
- T/C (B16 Melanoma; B16, dose 6.67 μg/kg): 182
- T/C (B16 Melanoma; B16, dose 11.11 μg/kg): 238
- cures (B16 Melanoma; B16, dose 11.11 μg/kg): 40%
- T/C [5, 8]: 138
- cures [5, 8]: 17%
- T/C ([5]; LOX in separate experiments, dose 15 μg/kg): 192
- T/C [5, 9]: 181
- cures [5, 9]: 33%
- T/C [5, 10]: 340
- cures [5, 10]: 50%
- T/C ([5]; LOX, dose 3.25 μg/kg): 170
- cures ([5]; LOX, dose 3.25 μg/kg): 17%
- T/C ([5]; LOX, dose 6.5 μg/kg): 206
- cures ([5]; LOX, dose 6.5 μg/kg): 33%
- T/C ([5]; LOX, dose 13 μg/kg): 301
- cures ([5]; LOX, dose 13 μg/kg): 50%
- T/C ([5]; LOX, dose 26 μg/kg): 301
- cures ([5]; LOX, dose 26 μg/kg): 67%
- T/C ([5]; LOX, dose 52 μg/kg): toxic
- T/C (Human Mammary Xenograft; dose 6.25 μg/kg): 178
- T/C (Human Mammary Xenograft; dose 13 μg/kg): 137
- T/C (Human Mammary Xenograft; dose 26 μg/kg): Toxic
- T/C (M5076 Ovary Sarcoma; M5076, dose 3.25 μg/kg): 151
- T/C (M5076 Ovary Sarcoma; M5076, dose 6.5 μg/kg): 142
- T/C (M5076 Ovary Sarcoma; M5076, dose 13 μg/kg): 166
- T/C (M5076 Ovary Sarcoma; M5076, dose 26 μg/kg): toxic
- T/C [6]: 300
- T/C (Tumor Regression) ([7]; MX-1, dose 6.25 μg/kg): 69
- T/C (Tumor Regression) ([7]; MX-1, dose 13 μg/kg): 61
- T/C (Tumor Regression) ([7]; MX-1, dose 26 μg/kg): 50
- T/C (Tumor Regression) ([7]; MX-1, dose 52 μg/kg): 14
